Assay results taken from US6413974B1, “6,9,-disubstituted 2-[trans-(4-aminocyclohexyl) amino] purines” (Aventis Pharmaceuticals Inc., priority 1998, dated 2002).
“And” between values parts separate entries of the source, which are not always exact repeats. Equal values may be shown once. Where a name gives a salt, the structure may show the parent alone. Read-outs that look alike come from different tables or passages of the source.

What was measured:
cdk2/cyclin E = biological target: T1, cdk2/cyclin E (Homo sapiens, UniProt P24941); assay: Cyclin-Dependent Kinase 2 Assay (cdk-2 inhibition); format: biochemical; conditions: GST-Rb substrate, 30 min at 30° C.
T1 construct: made in house; host or cells: insect cells (baculovirus co-infection)
Method in brief: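 GST-Rb bound to glutathione-Sepharose beads (0.5 μg/well) as substrate in 50 mM HEPES pH 7.5, 10 mM MgCl2, 1 mM EGTA. Recombinant cdk2/cyclin E at 0.1 μg per 100 μl, 30 min at 30 °C. Reaction stopped by filtration, TNEN washes, scintillation counting.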

cdk4/cyclin D1 = biological target: T2, cdk4/cyclin D1 (Homo sapiens, UniProt P11802); assay: Cyclin-dependent kinase 4 Assay; format: biochemical; conditions: cdk4/cyclin D1, GST-Rb substrate, 10 μM ATP, 30 min at 37° C.; read-out: CDK4 Inhibition IC50
T2 construct: made in house; host or cells: Sf9 insect cells (Bac-to-Bac baculovirus, pFastBac)
Method in brief: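 Insect-cell lysate of coexpressed human cdk4/cyclin D1 (0.1 μg) phosphorylated bead-bound GST-Rb (0.5 μg) in 50 mM HEPES pH 7.5, 10 mM MgCl2, 1 mM EGTA for 30 min at 37 °C. Filters were washed with TNEN and scintillation-counted; IC50 values derived.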

MDA-MB-231 = assay: In vitro tumor cell proliferation, MDA-MB-231; format: cell-based, human; conditions: read-out: In vitro Tumor Cell Proliferation (IC50, μM) Breast MDA-MB-231
Method in brief: (§1)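 SRB read-out: 3-day drug exposure, medium and drug renewed, 4 further days, TCA fixation at 4° C, 0.4% SRB stain. CyQUANT alternative: 3-day drug exposure, then plates frozen at −80° C ≥30 min. Cells plated overnight at 37° C before dosing.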

MDA-MB-435 = assay: In vitro tumor cell proliferation, MDA-MB-435; format: cell-based, human; conditions: read-out: In vitro Tumor Cell Proliferation (IC50, μM) Breast MDA-MB-435
Method in brief: as §1

HT-29 = assay: In vitro tumor cell proliferation, HT-29; format: cell-based, human; conditions: read-out: In vitro Tumor Cell Proliferation (IC50, μM) Colon HT-29 (converted)
Method in brief: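 HT-29 human colon adenocarcinoma cells plated overnight at 37° C., then exposed to drug for 3 days, medium with fresh drug replaced for a further 4 days. Cells fixed with 10% TCA and stained with 0.4% sulforhodamine B; alternatively, CyQUANT read after 3 days of drug exposure.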

Colo-205 = assay: In vitro tumor cell proliferation, Colo-205; format: cell-based, human; conditions: read-out: In vitro Tumor Cell Proliferation (IC50, μM) Colon Colo-205
Method in brief: as §1

A549 = assay: In vitro tumor cell proliferation, A549; format: cell-based, human; conditions: read-out: In vitro Tumor Cell Proliferation (IC50, μM) Lung A549
Method in brief: as §1

DMS-114 = assay: In vitro tumor cell proliferation, DMS-114; format: cell-based, human; conditions: read-out: In vitro Tumor Cell Proliferation (IC50, μM) Lung DMS-114
Method in brief: as §1

PC-3 = assay: In vitro tumor cell proliferation, PC-3; format: cell-based, human; conditions: read-out: In vitro Tumor Cell Proliferation (IC50, μM) Prostate PC-3
Method in brief: as §1

DU 145 = assay: In vitro tumor cell proliferation, DU 145; format: cell-based, human; conditions: read-out: In vitro Tumor Cell Proliferation (IC50, μM) Prostate DUI45
Method in brief: as §1

[1] = Homo sapiens, MDA-MB-231, values marked * (mark not explained)
[2] = values marked * (mark not explained), dihydrochloride
[3] = Homo sapiens, MDA-MB-435, values marked * (mark not explained)
[4] = Homo sapiens, HT-29, values marked * (mark not explained)
[5] = Homo sapiens, COLO 205, values marked * (mark not explained)
[6] = Homo sapiens, A549, values marked * (mark not explained)
[7] = Homo sapiens, DMS-114, values marked * (mark not explained)
[8] = Homo sapiens, PC-3, values marked * (mark not explained)
[9] = Homo sapiens, DU-145, values marked * (mark not explained)

T2 sequence (P11802 whole entry): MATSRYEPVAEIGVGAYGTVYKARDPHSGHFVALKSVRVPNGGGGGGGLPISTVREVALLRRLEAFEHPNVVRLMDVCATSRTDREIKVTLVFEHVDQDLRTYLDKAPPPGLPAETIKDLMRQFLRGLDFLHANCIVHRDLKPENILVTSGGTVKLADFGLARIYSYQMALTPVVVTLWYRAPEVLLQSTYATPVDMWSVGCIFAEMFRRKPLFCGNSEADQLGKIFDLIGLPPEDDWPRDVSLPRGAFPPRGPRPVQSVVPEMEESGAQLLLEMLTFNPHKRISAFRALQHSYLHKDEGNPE
T2 sequence (P24385 whole entry partner): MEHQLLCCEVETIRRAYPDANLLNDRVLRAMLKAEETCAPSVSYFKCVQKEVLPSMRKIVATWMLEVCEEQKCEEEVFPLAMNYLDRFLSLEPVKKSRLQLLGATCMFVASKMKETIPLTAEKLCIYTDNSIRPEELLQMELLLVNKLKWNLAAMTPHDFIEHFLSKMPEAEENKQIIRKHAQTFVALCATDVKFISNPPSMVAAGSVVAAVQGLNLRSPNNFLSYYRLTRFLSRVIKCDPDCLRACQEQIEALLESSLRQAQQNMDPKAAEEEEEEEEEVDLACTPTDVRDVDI

| Compound | IC50 (cdk2/cyclin E) | IC50 (cdk4/cyclin D1) | IC50 (MDA-MB-231; [1]) [µM] | IC50 (MDA-MB-231; [2]) [µM] | IC50 (MDA-MB-435; [3]) [µM] | IC50 (MDA-MB-435; [2]) [µM] | IC50 (HT-29; [4]) [µM] | IC50 (HT-29; [2]) [µM] | IC50 (Colo-205; [5]) [µM] | IC50 (Colo-205; [2]) [µM] | IC50 (A549; [6]) [µM] | IC50 (DMS-114; [7]) [µM] | IC50 (DMS-114; [2]) [µM] | IC50 (PC-3; [8]) [µM] | IC50 (PC-3; [2]) [µM] | IC50 (DU 145; [9]) [µM] | IC50 (DU 145; [2]) [µM] | IC50 (A549; [2]) [µM] |
| --- | --- | --- | --- | --- | --- | --- | --- | --- | --- | --- | --- | --- | --- | --- | --- | --- | --- | --- |
| N[C@H]1CC[C@H](Nc2nc(NCCCCc3ccccc3)c3ncn(C4CCCC4)c3n2)CC1 [Example 21, 2-[Trans-(4-aminocyclohexyl)amino]-6-(4-phenylbutylamino)-9-cyclopentylpurine dihydrochloride] | 0.039 µM and 0.091 µM | 1 µM | 0.8 | 0.9 | 1.3 | 1.2 | 0.7 | 0.8 | 0.51 | 0.78 | 0.5 | 0.7 | 0.6 | 0.6 | 0.8 | 0.4 | 0.7 |  |
| N[C@H]1CC[C@H](Nc2nc(NNCCc3ccccc3)c3ncn(C4CCCC4)c3n2)CC1 [Example 35, 2-[Trans-(4-aminocyclohexyl)amino]-6-[2-phenethylhydrazino]-9-cyclopentylpurine dihydrochloride] | 0.253 µM | 2.2 µM and 1.6 µM | 4.2 | 5.6 | 9.5 | 8 | 5.6 | 5.4 | 3.4 | 3.2 | 2.7 | 3 | 2.7 | 3 | 4.4 | 3.7 | 3.2 | 2.5 |
| N[C@H]1CC[C@H](Nc2nc(NCc3ccncc3)c3ncn(C4CCCC4)c3n2)CC1 [Example 8, 2-[Trans-(4-aminocyclohexyl)amino]-6-[(4-pyridyl)methylamino]-9-cyclopentylpurine dihydrochloride] | 0.11 µM | 0.7 µM and 0.8 µM | 5.3 | 8.1 | 10 |  | 7.6 | 11 | 4.6 | 4.1 | 7.7 | 9.9 | 7.4 | 4.6 | 5.4 | 5.8 | 6.5 | 5.9 |
| N[C@H]1CC[C@H](Nc2nc(NCCCCCO)c3ncn(C4CCCC4)c3n2)CC1 [Example 25, 2-[Trans-(4-aminocyclohexyl)amino]-6-[5-(hydroxy)pentylamino]-9-cyclopentylpurine dihydrochloride] | 0.021 µM | 0.11 µM | 3.4 | 5.4 | 6 |  | 5.6 | 6.2 | 2.4 | 2.3 | 6.1 | 6.6 | 4.5 | 1.8 | 2.3 | 3.9 | 4.6 | 5.5 |
| N[C@H]1CC[C@H](Nc2nc(NCc3cccs3)c3ncn(C4CCCC4)c3n2)CC1 [Example 17, 2-[Trans-(4-aminocyclohexyl)amino]-6-(2-thiophenemethylamino)-9-cyclopentylpurine dihydrochloride] | 0.069 µM and 0.046 µM | 0.3 µM and 0.5 µM | 2.4 | 3 | 3.2 | 3.7 | 2.4 | 2.6 | 2.2 | 3 | 1.8 | 1.9 | 1.7 | 1.7 |  | 1.6 |  | 1.6 |

Further lines, results first:

| IC50 (cdk2/cyclin E) | IC50 (cdk4/cyclin D1) | IC50 (MDA-MB-231; [1]) [µM] | IC50 (MDA-MB-231; [2]) [µM] | IC50 (MDA-MB-435; [3]) [µM] | IC50 (MDA-MB-435; [2]) [µM] | IC50 (HT-29; [4]) [µM] | IC50 (HT-29; [2]) [µM] | IC50 (Colo-205; [5]) [µM] | IC50 (Colo-205; [2]) [µM] | IC50 (A549; [6]) [µM] | IC50 (DMS-114; [7]) [µM] | IC50 (DMS-114; [2]) [µM] | IC50 (PC-3; [8]) [µM] | IC50 (PC-3; [2]) [µM] | IC50 (DU 145; [9]) [µM] | IC50 (DU 145; [2]) [µM] | IC50 (A549; [2]) [µM] | Compound |
| --- | --- | --- | --- | --- | --- | --- | --- | --- | --- | --- | --- | --- | --- | --- | --- | --- | --- | --- |
| 0.2 µM | 0.82 µM and 1.9 µM | 1.7 |  | 2.6 |  | 1.6 |  | 1.7 |  | 1.1 | 0.9 |  | 1.5 |  | 1.1 |  |  | CCCCCCNc1nc(N[C@H]2CC[C@H](N)CC2)nc2c1ncn2C1CCCC1 [Example 41, 2-[Trans-(4-aminocyclohexyl)amino]-6-(hexylamino)-9-cyclopentylpurine dihydrochloride] |
| 0.085 µM | 2 µM and 1.2 µM | 1 |  | 1.6 |  | 1 |  | 0.63 | 0.58 | 0.68 | 0.78 | 0.61 | 0.83 | 0.8 | 1.4 |  | 0.63 | CC(CCCC(C)(C)O)Nc1nc(N[C@H]2CC[C@H](N)CC2)nc2c1ncn2C1CCCC1 (relative stereo) [Example 54, 2-[Trans-(4-aminocyclohexyl)amino]-6-[(5-hydroxy-1,5-dimethylhexyl)amino]-9-cyclopentylpurine dihydrochloride] |
| 0.24 µM | 7 µM | 24 |  | 19 | 16 | 19 |  |  | 11 |  | 9.7 | 8 | 11 |  | > 20 | 10 | 8.3 | CCCCNc1nc(N[C@H]2CC[C@H](N)CC2)nc2c1ncn2C(C)C [Example 37, 2-[Trans-(4-aminocyclohexyl)amino]-6-[(butyl)amino]-9-(2-propyl)purine dihydrochloride] |
| 0.089 µM | 2.1 µM and 1.1 µM and 0.7 µM | 5.2 | 5.6 | 6.7 | 7.2 | 7 | 6.1 | 4.3 | 4.2 | 7.3 | 7 | 4.8 | 4.2 | 4 | 6.7 | 7.2 | 6.4 | N[C@H]1CC[C@H](Nc2nc(NCCc3ccc(O)cc3)c3ncn(C4CCCC4)c3n2)CC1 [Example 55, 2-[Trans-(4-aminocyclohexyl)amino]-6-[(4-hydroxyphenyl)ethylamino]-9-cyclopentylpurine. dihydrochloride] |
